Experimental data published in ChEMBL document CHEMBL1201862, “PubChem BioAssay data set” (2004).
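In this assay, cells in 96-well plates receive the compound at five concentrations for 48 hours. Endpoints are linearly interpolated between the surrounding concentrations. Abbreviation: GI50, concentration required for 50% inhibition of growth.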 Calls of active or inactive are those of the source. Rule as the data show it: active = GI50 up to about 1.1 µM and inactive = higher.

How the values were obtained:
Assay in all cases: NCI anticancer screen, dose series, 48 h
DMS-114 = system: DMS-114
HOP-18 = system: HOP-18
RXF 631 = system: RXF 631
DLD-1 = system: DLD-1
XF498 = system: XF498
LXFL 529 = system: LXFL 529
SNB-78 = system: SNB-78
KM-20L2 = system: KM-20L2
M19-MEL = system: M19-MEL

SMILES	GI50 (DMS-114)	GI50 (HOP-18)	GI50 (RXF 631)	GI50 (DLD-1)	GI50 (XF498)	GI50 (LXFL 529)	GI50 (SNB-78)	GI50 (KM-20L2)	GI50 (M19-MEL)
Cn1c2c([N+](=O)[O-])cccc2c(=O)c2c(O)cc3c(c21)C=CC(C)(C)O3	22.8 µM (inactive)	< 0.01 µM (active)	33.7 µM (inactive)	24.8 µM (inactive)	11.5 µM (inactive)	25.6 µM (inactive)	38 µM (inactive)	17.7 µM (inactive)	–
COc1ccc(CC(=O)NCCc2ccc(OC)c(OC)c2OC)cc1	> 100 µM (inactive)	> 100 µM (inactive)	> 100 µM (inactive)	> 100 µM (inactive)	> 100 µM (inactive)	> 100 µM (inactive)	> 100 µM (inactive)	> 100 µM (inactive)	> 100 µM (inactive)
CCN(CC)CC(=N)N(CC)c1ccccc1	> 100 µM (inactive)	> 100 µM (inactive)	–	> 100 µM (inactive)	> 100 µM (inactive)	> 100 µM (inactive)	> 100 µM (inactive)	> 100 µM (inactive)	> 100 µM (inactive)
CN(C)[C@@H]1C(O)=C(C(=O)NCNCCCC(=O)O)C(=O)[C@@]2(O)C(O)=C3C(=O)c4c(O)cccc4[C@@](C)(O)[C@H]3C[C@@H]12	> 100 µM (inactive)	> 100 µM (inactive)	–	> 100 µM (inactive)	> 100 µM (inactive)	> 100 µM (inactive)	> 100 µM (inactive)	> 100 µM (inactive)	> 100 µM (inactive)
OC12c3ccccc3C1CCCCCC21OCCCO1 (centres undefined)	> 100 µM (inactive)	> 100 µM (inactive)	–	> 100 µM (inactive)	–	> 100 µM (inactive)	> 100 µM (inactive)	> 100 µM (inactive)	> 100 µM (inactive)
COc1ccc(-c2onc(-c3c(C)cc(C)cc3C)c2C2=NCCCN2)cc1	–	2.1 µM (inactive)	44.4 µM (inactive)	78.3 µM (inactive)	60 µM (inactive)	> 100 µM (inactive)	35.1 µM (inactive)	33.4 µM (inactive)	> 100 µM (inactive)
C=C1CC2(OC1=O)c1ccccc1C=Cc1ccccc12	7.76 µM (inactive)	14.3 µM (inactive)	9.2 µM (inactive)	1.87 µM (inactive)	13.6 µM (inactive)	2.92 µM (inactive)	3.08 µM (inactive)	8.13 µM (inactive)	5.47 µM (inactive)
O=c1[nH]c(=O)n([C@@H]2O[C@H](CO)[C@@H](O)[C@H]2O)cc1F [5-FLUOROURIDINE]	10.4 µM (inactive)	–	1.05 µM (active)	0.0861 µM (active)	1.92 µM (inactive)	0.15 µM (active)	0.211 µM (active)	0.594 µM (active)	0.481 µM (active)
O=S1(=O)OCCOS(=O)(=O)C1(Cl)Cl	> 100 µM (inactive)	–	> 100 µM (inactive)	> 100 µM (inactive)	> 100 µM (inactive)	> 100 µM (inactive)	> 100 µM (inactive)	–	> 100 µM (inactive)
NC(=S)N/C=C1\C(=O)Oc2ccccc2C1=O	48.4 µM (inactive)	39.2 µM (inactive)	–	31.2 µM (inactive)	32.3 µM (inactive)	85.7 µM (inactive)	94.2 µM (inactive)	> 100 µM (inactive)	> 100 µM (inactive)
COc1ccc(NC(=O)CCc2cc(C(C)(C)C)[nH]n2)cc1	–	> 100 µM (inactive)	> 100 µM (inactive)	–	> 100 µM (inactive)	> 100 µM (inactive)	> 100 µM (inactive)	> 100 µM (inactive)	> 100 µM (inactive)
CSC(=N)NNC(=O)CCC(=O)Nc1ccccc1C(F)(F)F	> 100 µM (inactive)	> 100 µM (inactive)	–	> 100 µM (inactive)	–	> 100 µM (inactive)	> 61.5 µM (inactive)	> 44.7 µM (inactive)	> 100 µM (inactive)
O=C1[C@@H]2C(c3ccccc3[N+](=O)[O-])=NO[C@@H]2C(=O)N1c1ccc(Cc2ccc(N3C(=O)[C@H]4C(c5ccccc5[N+](=O)[O-])=NO[C@H]4C3=O)cc2)cc1	> 100 µM (inactive)	> 100 µM (inactive)	–	> 100 µM (inactive)	–	> 100 µM (inactive)	> 100 µM (inactive)	> 100 µM (inactive)	–
Cc1cc(N(CCC#N)CCC#N)ccc1/C=C1N=C(/C=C/c2ccccc2)OC(=O)N\1	> 100 µM (inactive)	–	–	> 100 µM (inactive)	> 100 µM (inactive)	> 100 µM (inactive)	43.3 µM (inactive)	> 100 µM (inactive)	> 100 µM (inactive)
COc1c2c(c(O)c3c4c(c(C)cc13)C1OC3(C(OC)OC5CC(C)(O)C(OC6CC(C)(O)C(O)C(C)O6)C(C)O5)OC1C(OC)(O4)C31CO1)C(=O)C(O)CC2OC1CC(C)(O)C(OC(C)=O)C(C)O1 (centres undefined)	< 0.01 µM (active)	< 0.01 µM (active)	< 0.01 µM (active)	0.01 µM (active)	< 0.01 µM (active)	< 0.01 µM (active)	< 0.01 µM (active)	< 0.01 µM (active)	< 0.01 µM (active)
CCOc1ccc(NC(=O)CC2SC(Nc3ccc(C)cc3C)=NC2=O)cc1 (centres undefined)	–	–	–	> 100 µM (inactive)	50.4 µM (inactive)	66.2 µM (inactive)	> 100 µM (inactive)	> 100 µM (inactive)	> 100 µM (inactive)
COc1cc(/C=N\O[Si](C)(C)C(C)(C)C)ccc1O[Si](C)(C)C(C)(C)C	28.1 µM (inactive)	> 100 µM (inactive)	30.1 µM (inactive)	89.9 µM (inactive)	38.6 µM (inactive)	70.1 µM (inactive)	> 100 µM (inactive)	> 100 µM (inactive)	74.5 µM (inactive)
NC(=O)c1coc(C2OC(CO)C(O)C2O)n1 (centres undefined)	> 100 µM (inactive)	> 100 µM (inactive)	–	–	–	> 100 µM (inactive)	> 100 µM (inactive)	> 100 µM (inactive)	> 100 µM (inactive)
COc1ccc(-c2nc(N)nc(-c3cc(C)ccc3O)c2Cl)cc1	48.2 µM (inactive)	> 100 µM (inactive)	> 100 µM (inactive)	39.9 µM (inactive)	35.6 µM (inactive)	33 µM (inactive)	24.3 µM (inactive)	> 100 µM (inactive)	93.3 µM (inactive)
CCCCCCC(/C=N/O)C(C)(O)CCC (centres undefined)	73.6 µM (inactive)	–	–	> 100 µM (inactive)	13.2 µM (inactive)	> 100 µM (inactive)	> 100 µM (inactive)	> 100 µM (inactive)	> 100 µM (inactive)
COC(=O)C(C(=O)C(=O)Nc1nnc(S)[nH]1)c1csc(N)n1 (centres undefined)	–	> 100 µM (inactive)	> 100 µM (inactive)	> 100 µM (inactive)	> 100 µM (inactive)	> 100 µM (inactive)	> 100 µM (inactive)	> 100 µM (inactive)	> 100 µM (inactive)
O=C1OC(c2cccc(C(F)(F)F)c2)c2ccc3ccccc3c21 (centres undefined)	5.57 µM (inactive)	> 10 µM (inactive)	3.42 µM (inactive)	4.79 µM (inactive)	> 100 µM (inactive)	8.3 µM (inactive)	> 100 µM (inactive)	> 10 µM (inactive)	> 10 µM (inactive)
CCC(C)(O)c1cn(-c2cccc(S(=O)(=O)O)c2)nn1 (centres undefined)	> 100 µM (inactive)	> 100 µM (inactive)	–	> 100 µM (inactive)	> 100 µM (inactive)	> 100 µM (inactive)	> 100 µM (inactive)	> 100 µM (inactive)	–
CNc1cccc(-c2cc(O)c3cc4c(cc3n2)OCO4)c1	0.723 µM (active)	0.881 µM (active)	–	0.181 µM (active)	3.82 µM (inactive)	0.119 µM (active)	0.318 µM (active)	–	0.445 µM (active)
O=C(O)C(C(=O)O)P(=S)(S)c1ccccc1 (centres undefined)	> 100 µM (inactive)	–	> 100 µM (inactive)	> 100 µM (inactive)	> 100 µM (inactive)	> 100 µM (inactive)	> 100 µM (inactive)	> 100 µM (inactive)	> 100 µM (inactive)
N#C/C(=C\c1ccc2[nH]ccc2c1)C(=O)c1ccc(O)c(O)c1	81.7 µM (inactive)	71.4 µM (inactive)	–	> 100 µM (inactive)	–	> 100 µM (inactive)	> 100 µM (inactive)	61.5 µM (inactive)	> 100 µM (inactive)
COc1ccc(CCNCCCC2c3ccccc3-c3ccccc32)cc1OC	7.48 µM (inactive)	16.8 µM (inactive)	–	16.1 µM (inactive)	14.7 µM (inactive)	14.1 µM (inactive)	15.7 µM (inactive)	3.45 µM (inactive)	11.1 µM (inactive)
COc1ccc(OC)c2c3c(ccc12)C(c1ccccc1)OC3=O (centres undefined)	51.8 µM (inactive)	52.1 µM (inactive)	–	63.5 µM (inactive)	–	43.8 µM (inactive)	12.8 µM (inactive)	> 100 µM (inactive)	45.7 µM (inactive)
